Results: ChEMBL document CHEMBL3758159, “Polycyclic amines as chloroquine resistance modulating agents in Plasmodium falciparum” (Bioorg Med Chem Lett, 2016)
Calls of active or inactive are those of the source. The rule behind the calls is not given here.

Tests used:
[1] = test system: Plasmodium falciparum Dd2; assay: Inhibition of voltage-gated calcium channel in Plasmodium flaciparum Dd2 cells assessed as reversal of choloroquine resistance at 1 uM relative to control; design: scale not given: the % may be the effect or the level left
[2] = test system: Plasmodium falciparum Dd2; assay: Inhibition of voltage-gated calcium channel in Plasmodium flaciparum Dd2 cells assessed as potentiation of choloroquine induced antimalarial activity by measuring ratio of chloroquine IC50 in presence to absence of compound at 1 uM
[3] = test system: Plasmodium falciparum NF54; assay: Inhibition of voltage-gated calcium channel in Plasmodium flaciparum NF54 cells assessed as potentiation of choloroquine induced antimalarial activity by measuring chloroquine IC50 in presence of compound at 1 uM
CHO = assay: Cytotoxicity against CHO cells by MTT assay; assay type: cell-based; settings: Cricetulus griseus
[4] = Selectivity index, ratio of IC50 for CHO cells to IC50 for chloroquine sensitive Plasmodium falciparum NF54; assay type: toxicity, cell-based; settings: hamster, read-out: Ratio IC50
Plasmodium falciparum [5] = assay: Antiplasmodial activity against multidrug resistant Plasmodium falciparum Dd2 by spectroscopic method; assay type: functional, organism-based
Plasmodium falciparum [6] = assay: Antiplasmodial activity against chloroquine sensitive Plasmodium falciparum NF54 by spectroscopic method; assay type: functional, organism-based
Rattus norvegicus = species: Rattus norvegicus; assay: Inhibition of voltage-gated calcium channel in Wistar rat synaptoneurosomes at 100 uM after 30 mins by fluorescent ratiometric indicator method
[7] = Inhibition of voltage-gated calcium channel in Wistar rat synaptoneurosomes after 30 mins by fluorescent ratiometric indicator method
[8] = test system: Plasmodium falciparum Dd2; assay: Inhibition of voltage-gated calcium channel in Plasmodium flaciparum Dd2 cells assessed as reversal of choloroquine resistance at 0.8 uM relative to control; design: scale not given: the % may be the effect or the level left
[9] = test system: Plasmodium falciparum Dd2; assay: Inhibition of voltage-gated calcium channel in Plasmodium flaciparum Dd2 cells assessed as reversal of choloroquine resistance at 0.5 uM relative to control; design: scale not given: the % may be the effect or the level left

SMILES | Activity [1] [%] | Ratio IC50 [2] | Activity [3] | IC50 (CHO) [µM] | selectivity ratio [4] | IC50 (Plasmodium falciparum [5]) [µM] | IC50 (Plasmodium falciparum [6]) [µM] | inhibition (Rattus norvegicus) [%] | IC50 [7] [µM] | Activity [8] [%] | Activity [9] [%]
OC12C3C4CC5C6C4C1C6C(C53)N2CCN1CCN(Cc2ccccc2)CC1 (stereo unspecified) | 19 | 0.81 | inactive | > 265 | > 29.1 | 6.28 | 9.09 | 51 | 100 |  | 
CN(C)c1cccc2cc(S(=O)(=O)NCCN3C4C5C6CC7C8C6C4C8C3(O)C75)ccc12 (stereo unspecified) | 81 | 0.19 | inactive | 119 | 31.7 | 6.25 | 3.76 | > 95 | 0.48 |  | 
O=[N+]([O-])c1ccc(CNC23CC4CC(CC(C4)C2)C3)cc1 |  |  |  | > 349 | > 4.7 |  | 74 | 86 |  |  | 
O=C(OCCNC12OC3C4C5CC(C6C5C3C61)C42)c1cccc(/C=C/[N+](=O)[O-])c1 (stereo unspecified) | 45 | 0.55 | inactive | > 254 | > 9.7 | 34.5 | 26.2 | > 95 | 0.98 |  | 
CCN(CC)CCCC(C)Nc1ccnc2cc(Cl)ccc12 (stereo unspecified) [CHLOROQUINE] |  |  |  | 35.8 |  |  |  |  |  |  | 
N#Cc1c2ccccc2cn1CCCNC12CC3CC(CC(C3)C1)C2 | 42 | 0.58 | inactive | 8.2 | 2.1 | 3.89 | 3.83 | 54 | 100 |  | 
O=[N+]([O-])c1ccc(CNC23OC4C5C6CC(C7C6C4C72)C53)cc1 (stereo unspecified) | 25 | 0.65 | inactive | > 322 | > 449 | 54.8 | 0.718 | 48 |  |  | 
CN(C)c1cccc2c(S(=O)(=O)NCCCNC34CC5CC(CC(C5)C3)C4)cccc12 | 65 | 0.35 | inactive | 7.4 | 2.6 | 7.01 | 2.83 | > 95 | 0.27 |  | 
c1ccc(CNC23OC4C5C6CC(C7C6C4C72)C53)cc1 (stereo unspecified) |  |  | inactive | > 10 |  | > 10 | > 10 | 52 | 86 |  | 
c1ccc(CNC23CC4CC(CC(C4)C2)C3)cc1 |  |  |  | > 414 | > 3.3 |  | 126 | 40 |  |  | 
COc1ccc(CNC23CC4CC(CC(C4)C2)C3)cc1 |  |  |  | > 368 | > 9.4 |  | 39.4 | 71 |  |  | 
O=[N+]([O-])c1ccc(NCCCNC23CC4CC(CC(C4)C2)C3)c([N+](=O)[O-])c1 |  |  |  | 8.01 | 7.1 | 18.8 | 1.13 | 12 |  |  | 
COc1ccc(CCN(C)CCCC(C#N)(c2ccc(OC)c(OC)c2)C(C)C)cc1OC (stereo unspecified) | 73 | 0.27 |  |  |  |  |  |  |  | 63 | 47
COCCOC(=O)C1=C(C)NC(C)=C(C(=O)OC(C)C)C1c1cccc([N+](=O)[O-])c1 (stereo unspecified) [NIMODIPINE] |  |  |  |  |  |  |  |  | 0.008 |  | 
OC12C3C4CC5C6C4C1C6C(C53)N2Cc1ccccc1 (stereo unspecified) | 64 | 0.36 | inactive | 84.8 | 11.1 | 13.3 | 7.62 | > 95 | 35 |  | 
